Test results from paper PMC7450938, “Prenatal to early postnatal neurotrophic treatment prevents Alzheimer-like behavior and pathology in mice” (Alzheimer's Research & Therapy, 2020).

Columns and labels:
Type in all cases: in vivo, mouse
[1] = tested on: 3xTg-AD mice; experiment: Morris water maze; conditions: ~4 months
Description: Pregnant 3xTg-AD and wild-type (WT) mice were treated with compound P021 in mouse chow, or as control with vehicle feed from gestational day 8 (E8) till their offspring/pups reached PND21, at which point the offspring were separated from their mother and put on normal mouse chow (Fig. 1). There were four study groups of mice, as follows: offspring of WT treated with vehicle diet (WT-Vh, n = 10), offspring of WT treated with […] diet (WT-[…], n = 17), offspring of 3xTg-AD treated with vehicle diet (3xTg-Vh, n = 12), and offspring of 3xTg-AD treated with […] diet (3xTg-[…], n = 18). Elevated plus maze, novel object recognition test, and Morris water maze were carried out consecutively from postnatal day 90 with all of mice. About 50% (4 animals/group) of the female offspring (n = 7-8 animals/group) were sacrificed at 4 months of age and the remaining 50% (3-4 animals/group) at 22 months of age. Left cerebral hemisphere homogenate was used for biochemical analysis and right cerebral hemisphere for immunohistochemical studies. We treated 2- to 3-month-old pregnant 3xTg-AD and WT mothers with compound P021 in mouse chow, or with vehicle feed as control at E8 until their offspring/pups reached PND21, at which point the offspring were separated and put on standard mouse chow (Fig. 1). Treatment was administered as 60 nmol peptide/g formulated diet (Research Diets; New Brunswick, NJ, USA). The vehicle-treated control animals received the same diet but without the peptide. On average, each mouse consumed ~ 2.7 g diet/day. The Morris water maze task was used to evaluate spatial learning and memory of the mice. A total of 57 mice were subjected to the Morris water maze task at about 4 months of age. The test was performed in a circular white pool (with a diameter of 180 cm and a height of 60 cm) filled with nontoxic white dye-tinted water and maintained at room temperature (20 ± 1 °C). The maze was designed with two virtual principal axes, with each line bisecting the maze perpendicular to the other one to divide the maze into four equal quadrants. […]

[2] = tested on: tau; experiment: Western blots of total and hyperphosphorylated tau in hippocampus
Description: (§1) We treated 2- to 3-month-old pregnant 3xTg-AD and WT mothers with compound P021 in mouse chow, or with vehicle feed as control at E8 until their offspring/pups reached PND21, at which point the offspring were separated and put on standard mouse chow (Fig. 1). Treatment was administered as 60 nmol peptide/g formulated diet (Research Diets; New Brunswick, NJ, USA). The vehicle-treated control animals received the same diet but without the peptide. On average, each mouse consumed ~ 2.7 g diet/day.
The animals were anesthetized with an overdose of sodium pentobarbital (125 mg/kg) and transcardially perfused with 0.1 M phosphate-buffered saline (PBS). After perfusion, the brains were removed from the skull immediately. The left hemisphere was dissected into hippocampus, cerebral cortex, cerebellum, and brain stem; immediately frozen on dry ice; and then stored at − 80 °C for biochemical analysis.
The tissue from the left cerebral hemisphere from each mouse stored at− 80 °C was homogenized in a Teflon-glass homogenizer to generate 10% (w/v) homogenate. The pre-chilled homogenization buffer contained 50 mM Tris–HCl (pH 7.4), 8.5% sucrose, 2 mM EDTA, 2 mM EGTA, 10 mM β-mercaptoethanol plus the following protease and phosphatase inhibitors: 0.5 mM AEBSF, 10 μg/mL aprotinin, 10 μg/mL leupeptin, 4 μg/mL pepstatin, 5 mM benzamidine, 20 mM β-glycerophosphate, 50 mM sodium fluoride, 1 mM sodium orthovanadate, and 100 nM okadaic acid. Each homogenate was boiled in 2× Laemmli sample buffer for 5 min, and protein concentration was measured by PierceTM 660-nm protein assay (Thermo Scientific; Rockford, IL, USA).
The samples were subjected to 10% SDS-PAGE and electro-transferred onto Immobilon-P membranes (EMD Millipore; Billerica, MA, USA). The blots were then probed with primary antibodies (Table 1) and developed with the corresponding HRP-conjugated secondary antibody and enhanced chemiluminescence (Pierce Biotechnology, Rockford, IL, USA). Densitometric quantification of protein bands in Western blots was analyzed using Multi Gauge version 3.0 software (FUJIFILM North America; Valhalla, NY, USA).

[3] = tested on: Aβ plaques; experiment: Aβ immunofluorescence, amyloid plaques in brain sections; conditions: 22-month-old 3xTg-AD mice, P021 diet E8-PND21
Description: as §1
The complete right hemisphere was immersion-fixed in 4% paraformaldehyde in 0.1 M PBS for 24–48 h, followed by cryoprotection in a 30% sucrose solution at 4 °C overnight. Later, the 40-μm-thick sagittal sections were cut on a freezing microtome. […]
Immunofluorescence staining was performed on free-floating sections, and every 12th brain section was chosen for densitometry and quantification. For immunohistochemical quantification, six brain sections of four animals per group were analyzed. All stainings for fluorescence-intensity quantification were carried out under identical conditions, including all tissue samples for a particular staining processed at the same time, and experimental and control sections photographed under identical settings. […]

[4] = 4-month-old 3xTg-AD mice, P021 diet E8-PND21, vs 3xTg-Vh, n = 4
[5] = 22-month-old 3xTg-AD mice, P021 diet E8-PND21
[6] = 22-month-old 3xTg-AD mice, P021 diet E8-PND21, vs 3xTg-Vh, n = 4

## Ac-DGGL^AG-NH2 [P021, 4-mer CNTF small molecule peptide mimetic to which adamantylated glycine was added at the C-terminal]
[1]; 3xTg-AD offspring, P021 diet E8-PND21, 4 training days, three-way ANOVA treatment P = 0.1088, t test 3xTg-Vh vs 3xTg-P021 P < 0.05
  escape latency to reach the hidden platform, acquisition phase: did not prevent it as determined by the three-way ANOVA but showed a clear tendency as determined by the two-tailed t test
[1]; 3xTg-AD offspring, P021 diet E8-PND21, probe 24 h after last training, 3xTg-Vh vs 3xTg-P021 P = 0.0132
  latency to first entrance into the target zone, probe trial: decreased the latency significantly
[1]; among WT-Vh, WT-P021, 3xTg-Vh, 3xTg-P021 groups
  swim speed and cued trial: no significant difference
[2]; [4]
  human-specific tau (antibody 43D): decreased
  tau hyperphosphorylation at Ser202/Thr205 (antibody AT8): decrease
  total tau (antibody R134d): decreased
[2]; [5]
  human tau (antibody 43D): did not change significantly
  hyperphosphorylated tau (antibody pT212): did not change significantly
[2]; [6]
  tau hyperphosphorylation at Ser202/Thr205 (antibody AT8): decreased
  tau hyperphosphorylation at Ser-396/404 (antibody PHF-1): decreased
  total tau (antibody R134d): only an insignificant decrease
[3]; one half of the brain, 6 sections per mouse, n = 4 mice
  plaque-occupied area (Aβ immunofluorescence): significantly decreased
[3]; subiculum, piriform cortex, forebrain and hippocampus, vs 3xTg-Vh
  amyloid plaques detected by Aβ antibody: markedly reduced
